Consider 13 molecules from patent publication US5804581A, “Inhibition of matrix metalloproteases by substituted phenalkyl compounds” (Bayer Corporation, priority 1997, dated 1998).

Like-named read-outs stand apart in the source and are kept apart here.

Experiment [1] deals with T1, Recombinant Human CHO Stromelysin (MMP-3) (Homo sapiens, UniProt P08254).
T1 construct: made in house; host or cells: CHO cells
The experiment is described as follows: P218 quenched fluorescence (microfluorometric profiling) assay, MMP-3. The class given is biochemical.
Description: P218 is a synthetic substrate containing a 4-acetyl-7-methoxycoumarin (MCA) group in the N-terminal position and a 3-[2, 4-dinitrophenyl]-L-2,3-diaminopropionyl (DPA) group internally.
The reaction was stopped by addition of soybean trypsin inhibitor (SBTI; 5:1 w/w to trypsin concentration). This activation protocol results in the formation of 45 kDa active MMP-3, which still contains the C-terminal portion of the enzyme.
Microfluorometric Reaction Buffer (MRB): Dilution of test compounds, enzymes, and P218 substrate for the microfluorometric assay were made in microfluorometric reaction buffer consisting of 50 mM 2-(N-morpholino)ethanesulfonic acid (MES) at pH 6.5 with 10 mM CaCl2, 150 mM NaCl, 0.005% Brij-35 and 1% DMSO.
MMP Microfluorometric Profiling Assay. The assay is done with a final substrate concentration of 6 μM P218 and approximately 0.5 to 0.8 nM MMP with variable drug concentrations. The Hamilton is programmed to serially dilute up to 11 compounds from a 2.5 mM stock (100% DMSO) to 10× the final compounds concentrations in the assay. Initially, the instrument delivers various amounts of microfluoromentric reaction buffer (MRB) to a 96 tube rack of 1 ml Marsh dilution tubes. The instrument then picks up 20 μl of inhibitor (2.5 mM) from the sample rack and mixes it with a buffer in row A of the Marsh rack, resulting in a 50 μM drug concentration. The inhibitors are then serially diluted to 10, 5, 1, 0.2, 0.05 and 0.01 μM. […] The instrument re-mixes and loads 14.5 μl of diluted compound from rows A to G in the Marsh rack to corresponding rows in the microtiter plate. (Row H represents the "background" row and 39.5 μl of MRB is delivered in placed of drug or enzyme). […] (The enzyme reservoir is pretreated with 1% BSA in 50 mM Tris, pH 7.5 containing 150 mM NaCl for 1 hour at room temp., followed by extensive H2 O washing and drying at room temp.).
IC50 and Ki Determination in Microfluorometric Assay: Data generated on the Cytofluor II is copied from an exported ".CSV" file to a master Excel spreadsheet. Data from several different MMPs (one 96 well plate per MMP) were calculated simultaneously. The percent inhibition is determination for each drug concentration by comparing the amount of hydrolysis (fluorescence units generated over 25 minutes of hydrolysis) of wells containing compound with the "enzyme only" wells in column 1.

The target of experiment [2] is T2, Human Recombinant Gelatinase B (MMP-9) (Homo sapiens, UniProt P14780).
T2 construct: made in house
T2 sequence (P14780 107-707 limits assumed): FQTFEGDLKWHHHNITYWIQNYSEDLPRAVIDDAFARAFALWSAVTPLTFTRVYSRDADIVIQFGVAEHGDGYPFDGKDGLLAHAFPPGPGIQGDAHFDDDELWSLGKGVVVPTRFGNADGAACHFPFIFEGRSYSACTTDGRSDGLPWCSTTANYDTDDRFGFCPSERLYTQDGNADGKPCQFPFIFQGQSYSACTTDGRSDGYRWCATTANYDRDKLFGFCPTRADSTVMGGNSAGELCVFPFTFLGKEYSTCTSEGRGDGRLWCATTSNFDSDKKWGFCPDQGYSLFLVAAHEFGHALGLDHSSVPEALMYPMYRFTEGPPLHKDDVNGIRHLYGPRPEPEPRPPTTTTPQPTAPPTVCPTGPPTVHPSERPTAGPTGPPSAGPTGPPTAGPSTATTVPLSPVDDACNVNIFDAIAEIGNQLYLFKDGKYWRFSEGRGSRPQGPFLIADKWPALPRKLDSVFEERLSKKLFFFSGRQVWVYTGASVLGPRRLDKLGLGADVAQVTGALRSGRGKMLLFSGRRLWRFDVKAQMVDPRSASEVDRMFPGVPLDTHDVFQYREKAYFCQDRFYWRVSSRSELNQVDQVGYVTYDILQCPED
Put plainly: P218 quenched fluorescence (microfluorometric profiling) assay, MMP-9. It counts as biochemical. The protocol: The assay was run with each invention compound and the three MMPs, Mmp-3, MMP-9 and MMP-2, analyzed in parallel, adapted as follows for a 96-well microtiter plate and a Hamilton AT® workstation. […] P218 is currently being produced BACHEM exclusively for Bayer. P218 has the structure: […] The enzyme was dialyzed against the same buffer to remove the APMA. Hamiltion Microlab AT Plus: The MMP-Profiling Assay is performed robotically on a Hamilton MicroLab AT Plus®. The Hamilton is programmed to: (1) serially dilute up to 11 potential inhibitors automatically from a 2.5 mM stock in 100% DMSO; (2) distribute substrate followed by inhibitor into a 96 well Cytofluor plate; and (3) add a single enzyme to the plate with mixing to start the reaction. Subsequent plates for each additional enzyme are prepared automatically by beginning the program at the substrate addition point, remixing the diluted inhibitors and beginning the reaction by addition of enzyme. In this way, all MMP assays were done using the same inhibitor dilutions. Millipore Cytofluor II. […] MMP Microfluorometric Profiling Assay. […] The Hamilton is programmed to serially dilute up to 11 compounds from a 2.5 mM stock (100% DMSO) to 10× the final compounds concentrations in the assay. Initially, the instrument delivers various amounts of microfluoromentric reaction buffer (MRB) to a 96 tube rack of 1 ml Marsh dilution tubes. The instrument then picks up 20 μl of inhibitor (2.5 mM) from the sample rack and mixes it with a buffer in row A of the Marsh rack, resulting in a 50 μM drug concentration. The inhibitors are then serially diluted to 10, 5, 1, 0.2, 0.05 and 0.01 μM. […] The instrument re-mixes and loads 14.5 μl of diluted compound from rows A to G in the Marsh rack to corresponding rows in the microtiter plate. (Row H represents the "background" row and 39.5 μl of MRB is delivered in placed of drug or enzyme). […] After addition and mixing of the enzyme, the plate is covered and incubated for 25 min. at 37° C. Additional enzymes are tested in the same manner by beginning the Hamilton program with the distribution of P218 substrate to the microtiter plate, followed by re-mixing and distribution of the drug from the same Marsh rack to the microtiter plate. The second (or third, etc.) MMP to be tested is then distributed from a reagent rack to the microtiter plate with mixing, prior to covering and incubation. This is repeated for all additional MMP's to be tested. IC50 and Ki Determination in Microfluorometric Assay: Data generated on the Cytofluor II is copied from an exported ".CSV" file to a master Excel spreadsheet. […] The percent inhibition is determination for each drug concentration by comparing the amount of hydrolysis (fluorescence units generated over 25 minutes of hydrolysis) of wells containing compound with the "enzyme only" wells in column 1. Following subtraction of the background the percent inhibition was calculated as: ((Control values-Treated values)/Control values)×100 Percent inhibitions were determined for inhibitor concentrations of 5, 1, 0.5, 0.1, 0.02, 0.005 and, 0.001 μM of drug. Linear regression analysis of percent inhibition versus log inhibitor concentration was used to obtain IC50 values.

Experiment [3] addresses T3, Human Recombinant Gelatinase A (MMP-2) (Homo sapiens, UniProt P08253).
T3 sequence (P08253 110-660): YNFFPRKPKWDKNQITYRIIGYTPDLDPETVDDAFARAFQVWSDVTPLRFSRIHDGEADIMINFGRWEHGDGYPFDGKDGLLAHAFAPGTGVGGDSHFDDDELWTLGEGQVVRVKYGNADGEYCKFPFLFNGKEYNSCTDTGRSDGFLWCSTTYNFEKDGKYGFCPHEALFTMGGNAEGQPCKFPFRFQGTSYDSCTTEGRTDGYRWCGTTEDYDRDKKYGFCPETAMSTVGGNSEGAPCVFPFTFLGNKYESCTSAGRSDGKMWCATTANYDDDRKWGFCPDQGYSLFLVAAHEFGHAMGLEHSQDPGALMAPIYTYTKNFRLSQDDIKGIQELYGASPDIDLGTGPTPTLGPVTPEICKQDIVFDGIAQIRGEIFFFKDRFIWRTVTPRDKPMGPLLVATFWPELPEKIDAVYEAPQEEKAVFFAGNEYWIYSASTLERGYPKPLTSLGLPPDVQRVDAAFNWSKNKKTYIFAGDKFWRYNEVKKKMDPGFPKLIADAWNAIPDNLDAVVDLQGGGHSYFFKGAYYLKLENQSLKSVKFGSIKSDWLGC
The experiment is described as follows: P218 quenched fluorescence (microfluorometric profiling) assay, MMP-2. The class given is biochemical.

For experiment [4] the following is noted: fenbufen analogs, Child, et al.; cited from earlier work.
In experiment [5] the test system is human colon tumor. The note with it: intraperitoneally; orthotopic model in nude mice; cited from earlier work.
The test system of experiment [6] is human ovarian carcinoma xenografts. The settings on record: batimastat given intraperitoneally; cited from earlier work.
The mark [7] stands for this setting: P218 6 μM, pH 6.5, 25 min, 37° C., read-out: MMP-3 Ki.
[8] abbreviates: P218 6 μM, pH 6.5, 25 min, 37° C., read-out: MMP-9 Ki.
The mark [9] stands for this setting: P218 6 μM, pH 6.5, 25 min, 37° C., read-out: MMP-2 Ki.

T1 sequence (P08254 100-477): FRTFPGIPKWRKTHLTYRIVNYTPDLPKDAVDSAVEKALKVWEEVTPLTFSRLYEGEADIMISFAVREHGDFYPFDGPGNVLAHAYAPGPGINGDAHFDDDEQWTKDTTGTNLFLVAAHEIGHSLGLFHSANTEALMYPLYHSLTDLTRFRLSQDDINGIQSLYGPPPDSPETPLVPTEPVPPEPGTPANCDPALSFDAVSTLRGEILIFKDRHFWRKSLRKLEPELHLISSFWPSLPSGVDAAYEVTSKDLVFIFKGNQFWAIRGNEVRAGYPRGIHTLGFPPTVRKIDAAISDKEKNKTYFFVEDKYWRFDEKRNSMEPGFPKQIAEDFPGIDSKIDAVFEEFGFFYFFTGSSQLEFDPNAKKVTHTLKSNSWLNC

For orientation: Ki means the dissociation constant of the complex between target and ligand, obtained from inhibition or displacement. Consider `O=C(CC(CCc1ccccc1C(=O)NCCN1CCOCC1)C(=O)O)c1ccc(-c2ccc(Cl)cc2)cc1` (stereo not drawn) [Compound XXV, 4'-chloro-α-[2 [2-[[[2-(4-morpholinyl)ethyl]amino]carbonyl]phenyl]ethyl]-γ-oxo-[1,1'-biphenyl]-4-butanoic acid], for which the results for the Ki in experiment [1] (setting [7]), in experiment [2] (setting [8]) and in experiment [3] (setting [9]) were 0.371 µM, 0.744 µM and 0.0514 µM, respectively.

For `O=C(O)CCNC(=O)c1cccc(CCC(CC(=O)c2ccc(-c3ccc(Cl)cc3)cc2)C(=O)O)c1` (stereo not drawn) [Compound XXVI, α-[2-[3-[[(2-carboxyethyl)amino]carbonyl]phenyl]ethyl]-4'-chloro-γ-oxo-[1,1'-biphenyl]-4-butanoic acid], the Ki in experiment [1] (setting [7]) stood at 0.178 µM; in experiment [2] (setting [8]) it was 0.706 µM; in experiment [3] (setting [9]) it was 0.0766 µM.

Regarding `O=C(CC(CCc1ccccc1C(=O)N1CCCCC1)C(=O)O)c1ccc(-c2ccc(OCc3ccccc3)cc2)cc1` (centres unmarked) [Compound XXXII], the Ki in experiment [1] (setting [7]) was found to be 0.0148 µM; in experiment [2] (setting [8]), 0.167 µM; in experiment [3], 0.013 µM.

Turning to `O=C(CC(CCc1ccccc1C(=O)N1CCOCC1)C(=O)O)c1ccc(-c2ccc(Cl)cc2)cc1` (centres unmarked) [II], the Ki was found to be 0.122 µM in experiment [1], 0.323 µM in experiment [2] and 0.0121 µM in experiment [3] (setting [9]).

`O=C(O)CC(C(=O)c1ccc(-c2ccccc2)cc1)c1ccccc1` (centres unmarked) [LXXVII]: the “activity as anti-inflammatory analgesic agents” value (“activity” below) in experiment [4] is “inactive”.

With `CCOC(=O)CCNC(=O)c1ccccc1CCC(CC(=O)c1ccc(-c2ccc(Cl)cc2)cc1)C(=O)O` (centres unmarked) [VII], the results for the Ki in experiment [1], in experiment [2] and in experiment [3] were 0.131 µM, 0.478 µM and 0.0271 µM, respectively.

`O=C(CC(CCc1cccc(C(=O)N2CCCCC2)c1)C(=O)O)c1ccc(-c2ccc(Cl)cc2)cc1` (stereo not drawn) [XI, 4'-chloro-γ-oxo-α-[2-[3-(1-piperidinylcarbonyl)phenyl]ethyl]-[1,1'-biphenyl]-4-butanoic acid]: the Ki in experiment [1] (setting [7]) was determined as 0.0344 µM; in experiment [2] (setting [8]), 0.0581 µM; in experiment [3] (setting [9]), 0.0103 µM.

Consider `O=C(CC(C(=O)O)c1ccccc1)c1ccc(-c2ccccc2)cc1` (centres unmarked) [XLIX], for which the “activity” value in experiment [4] is “inactive”.

For `CC(CC(=O)c1ccc(-c2ccccc2)cc1)C(=O)O` (centres unmarked) [XLVII], the “activity” value in experiment [4] is “inactive”.

Regarding `O=C(CC(CCc1ccc(C(=O)N2CCOCC2)cc1)C(=O)O)c1ccc(-c2ccc(Cl)cc2)cc1` (stereo not drawn) [XVII, 4'-chloro-α-[2-[4-(4-morpholinylcarbonyl)phenyl]ethyl]-γ-oxo-[1,1'-biphenyl]-4-butanoic acid], the Ki in experiment [1] came out at 0.236 µM; in experiment [2] it was 0.606 µM; in experiment [3] (setting [9]) it was 0.0536 µM.

In the case of `O=C(CC(CCc1ccc(C(=O)NCCN2CCOCC2)cc1)C(=O)O)c1ccc(-c2ccc(Cl)cc2)cc1` (centres unmarked) [XXIX], the Ki in experiment [1] (read-out: MMP-3 Ki, P218 6 μM, pH 6.5, 25 min, 37° C.) stood at 0.465 µM; in experiment [2] (read-out: MMP-9 Ki, P218 6 μM, pH 6.5, 25 min, 37° C.) it was 0.449 µM; in experiment [3] (setting [9]), 0.0814 µM.

Consider `O=C(CC(CCc1cccc(C(=O)NCCN2CCOCC2)c1)C(=O)O)c1ccc(-c2ccc(Cl)cc2)cc1` (stereo not drawn) [XXVII, 4'-chloro-α-[2-[3-[[[2-(-morpholinyl)ethyl]amino]carbonyl]phenyl]ethyl]-γ-oxo-[1,1'-biphenyl]-4-butanoic acid], for which the Ki in experiment [1] (setting [7]) is 0.353 µM; in experiment [2] (setting [8]), 0.786 µM; in experiment [3] it was 0.048 µM.

As to `CNC(=O)[C@H](Cc1ccccc1)NC(=O)[C@H](CC(C)C)[C@H](CSc1cccs1)C(=O)NO` [batimastat], the “human colon tumor growth and spread” value in experiment [5] was “inhibits human colon tumor growth and spread”. Further, in experiment [6], the “survival of mice bearing human ovarian carcinoma xenografts” value was “prolongs the survival”.
